Here are results for 8 compounds from patent publication US10336707B2, “Heterocyclic derivatives modulating activity of certain protein kinases” (EUDENDRON S.R.L., priority 2014, dated 2019).

Where two headings read alike, the source gives them in different places.

Experiment [1] relates to Karpas 299 lymphoma cell line positive for the oncogenic fusion protein NPM-ALK. Briefly: Tritiated thymidine uptake cell proliferation assay, Karpas 299. Format: cell-based. The settings on record: Homo sapiens. As to the method:
(§1) Method: Tritiated Thymidine Uptake Cell Proliferation Assay
(§2) The following procedure was used with parent untransformed BaF3 cells, BaF3 cells transformed with the oncogenic fusion protein NPM/ALK, NPM/ALK positive SUDHL-1 cells, NPM/ALK positive SUPM2, ALK-negative HL60 cells, NPM/ALK positive KARPAS-299 cells. The parent untransformed BaF3 cells or Alk-negative HL60 cells are used as controls. Cells were seeded in U-bottomed 96-well plates at 10000 cells/well in a volume of 100 μl in supplemented medium. In the case of the parent untransformed BaF3 cells, the medium was supplemented with IL-3. Serial dilutions of inhibitors were added to the appropriate wells and volumes adjusted to 200 μl. Controls were treated with the equivalent volume of vehicle, DMSO, alone. Plates were incubated at 37° C. for 72 h. 3[H]-thymidine (1 μCi/well) was added for the last 16 h of incubation. Cells were harvested on to paper filters and 3[H]-thymidine incorporation was measured using a scintillation counter (1430 MicroBeta, Wallac, Turku, Finland). The 50% inhibitory concentration (IC50) was defined as the concentration of inhibitor, expressed in nanomolar units, that gave a 50% decrease in 3[H]-thymidine uptake compared with controls.
In Table 1 are listed results for selected examples of compounds of the invention, reported as percentage of inhibition of cell proliferation at 200 nM, obtained from cellular assays in Karpas 299 lymphoma cell line positive for the oncogenic fusion protein NPM-ALK.

The target of experiment [2] is T1, BaF3 cell line transfected with the oncogenic fusion protein NPM-ALK and expressing the mutation L1196M (Homo sapiens, UniProt Q9UM73, L1196M, cells depend on it).
T1 construct: fused on or other part: P06748 (Nucleophosmin)
Briefly: Tritiated thymidine uptake cell proliferation assay, BaF3 NPM-ALK L1196M. Format: cell-based, murine. Particulars: for GI50: averaged IC50 values of cell proliferation inhibition, class letters, read-out: IC50 BaF3 NPM-ALK L1196M cells; for % Inhibition BaF3 NPM-ALK L1196M cells: percentage of inhibition of cell proliferation at 200 nM. As to the method: as §1, §2
In Table 2 are listed results for selected examples of compounds of the invention, reported as percentage of inhibition of cell proliferation at 200 nM, obtained from cellular assays in BaF3 cell line transfected with the oncogenic fusion protein NPM-ALK and expressing the mutation L1196M.
In Table 3 are listed averaged IC50 values of cell proliferation inhibition for selected examples of compounds of the present invention, obtained from cellular assays in BaF3 cell line transfected with the oncogenic fusion protein NPM-ALK and expressing the mutation L1196M. The letter “A” designates an IC50 value between 1 nM and 50 nM, the letter “B” designates an IC50 value between 50 nM and 100 nM, the letter “C” designates an IC50 value between 100 and 500 nM.

Where [3] appears, read: KARPAS-299, percentage of inhibition of cell proliferation at 200 nM, read-out: % Inhibition Karpas 299 cells.

T1 sequence (Q9UM73 whole entry L1196M, the tested form may be a part): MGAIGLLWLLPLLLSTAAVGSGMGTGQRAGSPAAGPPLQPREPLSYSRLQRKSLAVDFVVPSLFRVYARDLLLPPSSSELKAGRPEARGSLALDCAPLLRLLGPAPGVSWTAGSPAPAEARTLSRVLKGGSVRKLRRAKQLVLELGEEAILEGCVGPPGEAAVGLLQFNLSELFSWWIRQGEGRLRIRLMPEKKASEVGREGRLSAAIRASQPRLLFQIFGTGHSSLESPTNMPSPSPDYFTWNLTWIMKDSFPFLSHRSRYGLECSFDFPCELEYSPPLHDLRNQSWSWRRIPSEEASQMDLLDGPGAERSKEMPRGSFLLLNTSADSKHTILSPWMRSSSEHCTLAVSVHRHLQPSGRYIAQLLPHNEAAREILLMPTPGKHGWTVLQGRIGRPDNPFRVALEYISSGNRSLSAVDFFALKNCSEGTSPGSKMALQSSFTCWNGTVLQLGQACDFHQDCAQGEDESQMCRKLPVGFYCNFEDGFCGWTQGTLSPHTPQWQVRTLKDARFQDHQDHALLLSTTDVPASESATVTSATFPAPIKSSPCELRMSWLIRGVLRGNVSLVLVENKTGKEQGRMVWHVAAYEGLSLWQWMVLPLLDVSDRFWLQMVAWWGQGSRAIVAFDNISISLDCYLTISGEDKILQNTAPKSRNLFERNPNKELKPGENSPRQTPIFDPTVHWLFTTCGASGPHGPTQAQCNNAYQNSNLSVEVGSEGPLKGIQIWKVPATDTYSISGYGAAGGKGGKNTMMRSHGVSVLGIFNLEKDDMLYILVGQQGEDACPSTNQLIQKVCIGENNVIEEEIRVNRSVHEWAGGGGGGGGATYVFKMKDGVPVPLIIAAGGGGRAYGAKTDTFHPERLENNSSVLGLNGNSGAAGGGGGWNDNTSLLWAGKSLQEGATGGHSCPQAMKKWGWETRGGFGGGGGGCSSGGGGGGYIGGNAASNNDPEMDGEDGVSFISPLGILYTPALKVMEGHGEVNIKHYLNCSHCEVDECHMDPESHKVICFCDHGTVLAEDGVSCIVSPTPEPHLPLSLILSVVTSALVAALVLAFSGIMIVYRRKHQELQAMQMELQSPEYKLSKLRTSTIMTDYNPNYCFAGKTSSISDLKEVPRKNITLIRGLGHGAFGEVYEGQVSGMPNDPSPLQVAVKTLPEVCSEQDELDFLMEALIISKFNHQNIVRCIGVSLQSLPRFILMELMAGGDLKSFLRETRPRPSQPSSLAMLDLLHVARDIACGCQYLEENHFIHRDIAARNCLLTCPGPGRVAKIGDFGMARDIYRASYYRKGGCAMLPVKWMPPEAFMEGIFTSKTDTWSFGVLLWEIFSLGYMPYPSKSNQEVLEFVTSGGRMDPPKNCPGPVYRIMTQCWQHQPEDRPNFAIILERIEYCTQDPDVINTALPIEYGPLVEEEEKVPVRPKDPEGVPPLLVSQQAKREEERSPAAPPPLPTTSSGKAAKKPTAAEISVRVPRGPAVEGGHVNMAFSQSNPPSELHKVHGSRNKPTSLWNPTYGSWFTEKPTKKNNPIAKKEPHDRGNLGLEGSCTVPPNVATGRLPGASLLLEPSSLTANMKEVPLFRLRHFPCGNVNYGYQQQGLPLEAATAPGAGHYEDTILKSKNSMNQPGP

For the compound `Cc1cc(-c2cc3[nH]nc(NC(=O)c4ccc(N5CCN(C)CC5)cc4NC4CCOCC4)c3cc2Cc2cc(F)cc(F)c2)ccc1O` [Example 21, N-[5-[(3,5-difluorophenyl)methyl]-6-(4-hydroxy-3-methyl-phenyl)-1H-indazol-3-yl]-4-(4-methylpiperazin-1-yl)-2-(tetrahydropyran-4-ylamino)benzamide], the inhibition at 0.2 µM in experiment [1] (setting [3]) amounted to 100%. Further, in experiment [2], the GI50 lay in the range of 1 to 50 nM and the “% Inhibition BaF3 NPM-ALK L1196M cells” value came out at 99%.
Take `CN1CCN(c2ccc(C(=O)Nc3n[nH]c4cc(-c5ccccc5)c(Cc5cc(F)cc(F)c5)cc34)c(NC3CCOCC3)c2)CC1` [Example 23, N-[5-[(3,5-difluorophenyl)methyl]-6-phenyl-1H-indazol-3-yl]-4-(4-methylpiperazin-1-yl)-2-(tetrahydropyran-4-ylamino)benzamide]: the inhibition at 0.2 µM in experiment [1] (setting [3]) is 71%. For the same compound, in experiment [2], the “% Inhibition BaF3 NPM-ALK L1196M cells” value is listed as 61%.
`CN1CCN(c2ccc(C(=O)Nc3n[nH]c4cc(-c5ccc(O)c(F)c5)c(Cc5cc(F)cc(F)c5)cc34)c(NC3CCOCC3)c2)CC1` [Example 25, N-[5-[(3,5-difluorophenyl)methyl]-6-(3-fluoro-4-hydroxy-phenyl)-1H-indazol-3-yl]-4-(4-methylpiperazin-1-yl)-2-(tetrahydropyran-4-ylamino)benzamide]: in experiment [1] (setting [3]), the inhibition at 0.2 µM was found to be 100%. Further, in experiment [2], the GI50 lay in the range of 1 to 50 nM and the “% Inhibition BaF3 NPM-ALK L1196M cells” value amounted to 100%.
Regarding `CN1CCN(c2ccc(C(=O)Nc3n[nH]c4cc(-c5ccc6[nH]ncc6c5)c(Cc5cc(F)cc(F)c5)cc34)c(NC3CCOCC3)c2)CC1` [Example 26, N-[5-[(3,5-difluorophenyl)methyl]-6-(1H-indazol-5-yl)-1H-indazol-3-yl]-4-(4-methylpiperazin-1-yl)-2-(tetrahydropyran-4-ylamino)benzamide], the inhibition at 0.2 µM in experiment [1] (setting [3]) was 99%. In experiment [2], the GI50 was 1 to 50 nM and the “% Inhibition BaF3 NPM-ALK L1196M cells” value is 99%.
As to `CN1CCN(c2ccc(C(=O)Nc3n[nH]c4cc(-c5cncnc5)c(Cc5cc(F)cc(F)c5)cc34)c(NC3CCOCC3)c2)CC1` [Example 27, N-[5-[(3,5-difluorophenyl)methyl]-6-(pyrimidin-5-yl)-1H-indazol-3-yl]-4-(4-methylpiperazin-1-yl)-2-(tetrahydropyran-4-ylamino)benzamide], the inhibition at 0.2 µM in experiment [1] (setting [3]) is 87%. Besides, the “% Inhibition BaF3 NPM-ALK L1196M cells” value in experiment [2] was found to be 62%.
For the compound `CN1CCN(c2ccc(C(=O)Nc3n[nH]c4cc(-c5ccc6c(c5)C(=O)NC6)c(Cc5cc(F)cc(F)c5)cc34)c(NC3CCOCC3)c2)CC1` [Example 28, N-[5-[(3,5-difluorophenyl)methyl]-6-(3-oxoisoindolin-5-yl)-1H-indazol-3-yl]-4-(4-methylpiperazin-1-yl)-2-(tetrahydropyran-4-ylamino)benzamide], the inhibition at 0.2 µM in experiment [1] (setting [3]) was 55%. For the same compound, in experiment [2], the “% Inhibition BaF3 NPM-ALK L1196M cells” value stood at 60%.
As to `CN1CCN(c2ccc(C(=O)Nc3n[nH]c4cc(-c5cnc6[nH]ccc6c5)c(Cc5cc(F)cc(F)c5)cc34)c(NC3CCOCC3)c2)CC1` [Example 29, N-[5-[(3,5-difluorophenyl)methyl]-6-(1H-pyrrolo[2,3-b]pyridin-5-yl)-1H-indazol-3-yl]-4-(4-methylpiperazin-1-yl)-2-(tetrahydropyran-4-ylamino)benzamide], the inhibition at 0.2 µM in experiment [1] (setting [3]) is 100%. In experiment [2], the GI50 is 50 to 100 nM and the “% Inhibition BaF3 NPM-ALK L1196M cells” value was 98%.
In the case of `CN1CCN(c2ccc(C(=O)Nc3n[nH]c4cc(-c5ccc(O)cc5)c(Cc5cc(F)cc(F)c5)cc34)cc2)CC1` [Example 33, N-[5-[(3,5-difluorophenyl)methyl]-6-(4-hydroxyphenyl)-1H-indazol-3-yl]-4-(4-methylpiperazin-1-yl)benzamide], the inhibition at 0.2 µM in experiment [1] (KARPAS-299, read-out: % Inhibition Karpas 299 cells) is 100%. Besides, in experiment [2], the GI50 fell in the range of 1 to 50 nM and the “% Inhibition BaF3 NPM-ALK L1196M cells” value is reported as 99%.

The term inhibition denotes the percentage by which the read-out fell short of the control.
